Consider 3 compounds from patent publication US9731052B2, “Methods for stepwise deposition of silk fibroin coatings” (TRUSTEES OF TUFTS COLLEGE, priority 2005, dated 2017).

Data set [1] is described as follows: Compound release from multilayer silk coatings on glass slides in PBS. Format: physicochemical. To be noted: room temperature. An excerpt: (§1) This process was repeated according to the designated architectures in which the outmost layer was always silk layer. In this work, two different loading modalities were used in the release study for each compound, each with two different rinsing methods. UV-Vis absorbance spectra and a research quartz crystal microbalance (RQCM) were used for verifying the deposition.
The compound release from the multilayer coatings on glass microscope slides (25×75 mm on both sides) was investigated by incubating the slides in 5 ml PBS buffer solutions at room temperature with gentle shaking (60 rpm). At preset time intervals, 2 ml supernatant was sampled and 2 ml fresh PBS solution was then added to replenish the sample that was removed in order to maintain a constant volume. The supernatant was analyzed for the amount of released model compound using UV-vis spectroscopy for optical densities at a specific wavelength for each compound (562 nm for Rhodamine B, 609 nm for Even Blue, and 358 nm for Azoalbumin) and compared to a standard curve generated for each compound. The amount of released compound in each sample was summed with the amounts at each previous time point and divided by the total amount to obtain cumulative release value. Experiments were run in triplicates (n=3). Data in the graphs represent the average±standard deviation.

Data set [2] can be described thus: Real-time adsorption of model compounds monitored by RQCM. Format: physicochemical. Particulars: in situ RQCM; for adsorption (saturation) that took place within the first 2 min: silk pre-coated gold electrode.
Excerpt: as §1
The real-time adsorption of model compounds on silk pre-coated gold electrode surface was monitored using research quartz crystal microbalance (RQCM).

As for `Cc1cc(-c2ccc(/N=N/c3ccc4c(S(=O)(=O)[O-])cc(S(=O)(=O)[O-])c(N)c4c3O)c(C)c2)ccc1/N=N/c1ccc2c(S(=O)(=O)[O-])cc(S(=O)(=O)[O-])c(N)c2c1O.[Na+].[Na+].[Na+].[Na+]` [Even Blue], the “initial burst, compared with Rhodamine B” value in data set [1] is “no noticeable difference”. Moreover, the “adsorption (saturation) that took place within the first 2 min” value in data set [2] is on record as approximately 92%.

Turning to `CCN(CC)c1ccc2c(-c3ccccc3C(=O)O)c3ccc(=[N+](CC)CC)cc-3oc2c1` [Rhodamine B], in data set [2], the “adsorption on silk coating, compared with Even Blue” value was “higher adsorption” and the “adsorption (saturation) that took place within the first 2 min” value is approximately 92%.

“Azoalbumin: model molecule representing therapeutically relevant proteins”: the “adsorption (saturation) that took place within the first 2 min” value in data set [2] is recorded as approximately 82%.
